Measurements: paper PMC5976665, “Identification of a peptide for folate receptor alpha by phage display and its tumor targeting activity in ovary cancer xenograft” (Scientific Reports, 2018)
Residues, ends and D or L forms follow the SMILES beside them. No end group written: not given here. *: point of attachment. FITC = O=C1OC2(c3ccc(O)cc3Oc3cc(O)ccc32)c2ccc(NC(=S)*)cc21

Key:
SKOV3 xenograft tumor = assay: Tumor targeting of FITC conjugated synthetic peptide by fluorescence imaging; assay type: in vivo, nude mouse; details: 200 μL of 10 mg/mL in PBS i.v., 2 h circulation, liver, lung, kidney, heart, ovary
Method: FITC conjugated peptide C7 was chemically synthesized by GL Biochem (Shanghai, China) and purified by high-performance liquid chromatography with more than 95% purity and confirmed by mass spectrometry. The FITC conjugated peptide was evaluated in tumor bearing mice for its tumor targeting capability. The peptide was dissolved in PBS at a concentration of 10 mg/mL and 200 μL was injected intravenously into a tumor bearing nude mouse. After 2 h circulation, tumor and other organ tissues (liver, lung, kidney, heart, and ovary) were harvested and analyzed using Carestream IS4000 fluorescence imaging system.

SKOV3 cells [1] = assay: Cell internalization by confocal microscopy, SKOV3 cells; assay type: cell-based, human; details: FITC conjugated peptide 200 μg/mL, 4 hours at 37 °C
Method: To visualize internalization of synthesized peptide C7 into cells, SKOV3 or HepG2 cells were seeded in 24 well plates (10^5 cells/well) containing coverslips and incubated for 24 hours in RPMI 1640 medium with 10% FBS. FITC conjugated peptide C7 or PB-TUP[24] (VHWDFRQWWQPS) (200 μg/mL) was incubated with the cells for 4 hours at 37 °C. After incubation, the cells were washed once with PBS and fixed in 4% paraformaldehyde for 10 min. Cells were then washed three times with PBS and stained with DAPI for 20 min at room temperature. Internalized fluorescent signals were imaged with a Zeiss LSM800 confocal microscope.

HepG2 cells = assay: Cell-based ELISA of phage clones on HepG2 cells; set-up: species or system human; details: FRα negative cells, fixed; 10^10 phages per well, 37 °C 2 h, HRP anti-M13
Text: (§1) Phage clones with high ELISA value were further tested by cell-based ELISA. SKOV3 (human epithelial ovarian cancer cell) is a FRα expressing cell line and was used to evaluate the binding of selected phage clones to natural FRα protein on cell surface. HEPG2 (Human Liver Carcinoma Cell) without FRα expressing was used as a negative control. Both cell lines were purchased from Shanghai Cell Biology Institutes (Academia Sinica, Shanghai, China) and maintained in RPMI 1640 Medium with 10% fetal bovine serum and antibiotics. The presence or absence of FRα expression of the two cell lines were confirmed by flow cytometry described in 2.4. The cells were cultured in 96-well plate to 80% confluence and fixed with 4% paraformaldehyde. After blocking with 3% BSA for 2 h, 10^10 individual phages were added to each well and incubated at 37 °C for 2 h. Then the plate was washed with PBST for three times and cell-bound phage was detected with HRP-conjugated anti-M13 IgG (1:10000) as described in phage ELISA.

SKOV3 cells [2] = assay: Cell-based ELISA of phage clones on SKOV3 cells; set-up: species or system human; details: FRα positive cells, fixed; 10^10 phages per well, 37 °C 2 h, HRP anti-M13
Text: as §1

SKOV3 implanted tumor = assay: In vivo homing of phage clones in SKOV3 xenografts; set-up: species or system Balb/c nude mice; details: 2 × 10^11 phages i.v., circulated 15 min, phage titration per gram of tissue, n = 3
Method: Female Balb/c nude mice aged 6–8 weeks were purchased from the Yangzhou University Animal Center. All the animal studies were performed in compliance with the National Institutes of Health Guide for the Care and Use of Laboratory Animals and approved by IACUC (Institutional Animal Care and Use Committee of China Pharmaceutical University). The authors confirm that experiments involving laboratory animals adhered to the ethical standards of National Institutes of Health Guide and China Pharmaceutical University. The laboratory animals were used under the experimental animal production license 2121922. All animals were housed in a controlled environment (25 °C; 12 h light-dark cycle), with water and food provided freely. 2 × 10^6 SKOV3 cells were subcutaneously injected into the left flank of mice to generate epithelial ovarian cancer xenografts. 2 × 10^11 individual purified phage clones were injected intravenously and circulated for 15 min. After anesthetized with 10 mg/kg […] (5% w/v), the mice were perfused through the heart. Then, the tumor and main organs (liver, lung, kidney, heart and ovary) were harvested, weighed and homogenated. The homogenated tissues were washed, and lysed with 1% NP40. Bound phages were recovered by elution and titrated as described. The distribution of phages was calculated as phages per gram.

SKOV3 cells [3] = assay: Flow cytometry of phage clone binding to SKOV3 cells; assay type: cell-based, human; details: 4 °C 1 h, mouse anti-M13 and FITC goat anti-mouse antibody
Method: SKOV3 cells were collected and suspended in 2% FCS-PBS medium at 1 × 10^6 cells/mL. Purified phage clones were incubated individually with the cells at 4 °C for 1 h. The cells were washed twice with 2% FCS-PBS by 5 min centrifugation at 300 g. Mouse anti-M13 antibody was diluted with 2% FCS-PBS (1:400) and incubated with cells for 30 min at 4 °C. After washing, the cells were stained for 30 min at 4 °C with FITC conjugated goat anti-mouse antibody (Fcmacs, Inc., Nanjing). Cells were analyzed as described above.

[4] = target: T1, Native human folate receptor alpha (FRα) on SKOV3 cells (human (endogenous in SKOV3), UniProt P15328 25-234); assay: flow cytometry on cells; purified phage clones incubated with SKOV3 cells (1 × 10^6 cells/mL, 2% FCS-PBS) at 4 °C for 1 h; mouse anti-M13 antibody and FITC goat anti-mouse antibody; M13KE as negative control; details: one partner purified
T1 construct: folate receptor alpha, endogenous on the surface of SKOV3 human epithelial ovarian cancer cells; also called natural FRα protein on cell surface; source: endogenous, on SKOV3 cells
T1 sequence (P15328 25-234): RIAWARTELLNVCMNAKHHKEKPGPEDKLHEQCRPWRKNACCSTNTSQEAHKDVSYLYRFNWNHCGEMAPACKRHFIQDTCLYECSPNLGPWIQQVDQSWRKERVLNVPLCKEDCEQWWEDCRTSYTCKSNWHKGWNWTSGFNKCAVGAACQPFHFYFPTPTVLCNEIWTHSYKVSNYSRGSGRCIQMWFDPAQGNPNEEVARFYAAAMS

[5] = target: T2, Recombinant human folate receptor alpha (FRα) (human, UniProt P15328 25-234); assay: MST; serial dilutions of FITC conjugated C7 in PBS pH 7.4 mixed with purified FRα protein (1 μg/mL), 5 min at room temperature; Monolith NT.115, standard capillaries; KD from the Hill formula; details: both partners purified
T2 construct: folate receptor alpha, human; also called recombinant folate receptor α; purified FRα protein; source: E. coli system, purified with a Ni-column
T2 sequence (P15328 25-234): as above

Molecule | binding to HepG2 cells in cell-based ELISA (HepG2 cells) | binding to SKOV3 cells in cell-based ELISA (SKOV3 cells [2]) | specific binding to SKOV3 cells (FITC+ cells) (SKOV3 cells [3]) [%] | percent specific binding to SKOV3 cells [4] [%] | further results
CSCC[C@H](NC(=S)Nc1ccc2c(c1)C(=O)OC21c2ccc(O)cc2Oc2cc(O)ccc21)C(=O)N[C@@H](Cc1c[nH]cn1)C(=O)N[C@H](C(=O)N[C@@H](C)C(=O)N1CCC[C@H]1C(=O)NCC(=O)N[C@@H](Cc1c[nH]c2ccccc12)C(=O)NCC(=O)N[C@@H](Cc1ccc(O)cc1)C(=O)N[C@@H](CCCNC(=N)N)C(=O)N[C@@H](CC(C)C)C(=O)N[C@@H](CO)C(=O)O)[C@@H](C)O [C7, Met-His-Thr-Ala-Pro-Gly-Trp-Gly-Tyr-Arg-Leu-Ser] ({FITC}-MHTAPGWGYRLS-OH; N-terminus and C-terminus assumed) |  |  |  |  | fluorescence signal in the tumor compared with other organs (SKOV3 xenograft tumor): significantly stronger compared to that in other organs except liver and kidney; internalization into SKOV3 cells (SKOV3 cells [1]): can be internalized
GALLPSMNKGHW [phage clone B8, phage clone displaying Gly-Ala-Leu-Leu-Pro-Ser-Met-Asn-Lys-Gly-His-Trp] | relatively low binding | highest binding |  |  | 
MHTAPGWGYRLS [phage clone C7, phage clone from Ph.D.-12 library displaying the C7 dodecapeptide] | relatively low binding | highest binding | 51.2 |  | phage enrichment in tumor tissue relative to M13KE phage in tumor (SKOV3 implanted tumor): 49 fold; phage titer in tumor relative to normal ovary (SKOV3 implanted tumor): 190 fold
MNPYPRTPWPHV [phage clone G12, phage clone displaying Met-Asn-Pro-Tyr-Pro-Arg-Thr-Pro-Trp-Pro-His-Val] | relatively low binding | highest binding | 41.8 |  | 
YTNPYYSSHTRN [phage clone G8, phage clone displaying Tyr-Thr-Asn-Pro-Tyr-Tyr-Ser-Ser-His-Thr-Arg-Asn] | relatively low binding | highest binding | 36.0 |  | 
YTNPYYSSHTRN (dodecapeptide selected by phage display; printed in three-letter code; source: M13 phage clone from the Ph.D.-12 library, amplified in E. coli ER2738; purified phage for flow cytometry) [Phage clone G8] |  |  |  | 36 | 
MNPYPRTPWPHV (dodecapeptide selected by phage display; printed in three-letter code; source: M13 phage clone from the Ph.D.-12 library, amplified in E. coli ER2738; purified phage for flow cytometry) [Phage clone G12] |  |  |  | 41.8 | 
MHTAPGWGYRLS (dodecapeptide selected by phage display; printed in three-letter code; the synthetic FITC peptide is m18; also called C7 phage clone; source: M13 phage clone from the Ph.D.-12 library, amplified in E. coli ER2738; purified phage for flow cytometry) [Phage clone C7] |  |  |  | 51.2 | 
GALLPSMNKGHW (dodecapeptide selected by phage display; printed in three-letter code; source: M13 phage clone from the Ph.D.-12 library, amplified in E. coli ER2738; purified phage for flow cytometry) [Phage clone B8/H1/G4] |  |  |  | 31.8 | 
{FITC}-MHTAPGWGYRLS (dodecapeptide of phage clone C7, chemically synthesized; printed in three-letter code; also called C7 peptide; synthesized peptide C7; source: synthetic peptide (GL Biochem, Shanghai; HPLC, more than 95% purity)) [FITC conjugated peptide C7] |  |  |  |  | Kd [5]: 300 nM
